The values that follow come from patent publication US5962013A, “Monolithic matrix transdermal delivery system for administering molsidomine” (priority 1998, dated 1999).

The conditions of data set [1]: cited from earlier work.
The conditions of data set [2]: in vivo.
Method: It is necessary to combine both the oral dose and the pharmacokinetics data to estimate the target flux of ketorolac. For an oral dosage regimen of ketorolac tromethamine, it is recommended that 10 mg be given every 6 hours as needed for short-term management of moderate to severe pain.
Another data set deals with Rhesus monkeys. The settings on record: cited from earlier work.
The conditions of data set [3]: cited from earlier work. The source holds these as a separate data set.
The conditions of data set [4]: cited from earlier work; for Solubilities: saturated.
Data set [5] has as its system patients with coronary heart disease. To be noted: single oral dose of 2 mg; cited from earlier work.
For data set [6] the following is noted: oral doses; cited from earlier work.
The conditions of data set [7]: cited from earlier work. This is another data set of the same source.
In another data set the test system is rats. To be noted: rat, not told; cited from earlier work.
Data set [8] is described as follows: in vitro skin flux of ketorolac. The settings on record: Table 5.
Method: Generally, the protocol was as follows.
Human cadaver epidermis was removed carefully from dermatoned full thickness skin after the skin had been heated in deionized water at 60° C. for one to two minutes. The stripped epidermis was placed between two polyethylene plastic sheets and refrigerated at -20° C. until use. Discs of the epidermis having a diameter of 5/8" were punched out with a die and tested for leakage by soaking the epidermis in water, then spreading it flat on a plastic sheet, and pressing the top of the epidermis lightly a few times with a piece of laboratory tissue. Leakage of the epidermis was detected by appearance of wet spots on the tissue.
Epidermis discs proving to be free of leaks were placed on top of a receiver cell of a modified Franz vertical diffusion cell assembly, and a donor cell was placed on top of the receiver cell. A small magnetic stir bar was inserted through the sampling port into the donor cell compartment. The diffusion cell assemblies were clamped together and transferred to a skin permeation room (controlled at 32° C.) The receiver cell compartments were filled with 8.0 ml of isotonic phosphate buffer, pH 7.0. […]
The quantity of ketorolac tromethamine in each sample was assayed by HPLC analytical methods.
A further data set deals with coronary strips. The settings on record: vasodilation; cited from earlier work.
For data set [9] the following is noted: cited from earlier work. This is another data set of the same source.
For data set [10] the following is noted: administered orally; cited from earlier work.
For data set [11] the following is noted: cited from earlier work. This is another data set of the same source.

Each structure is given as a SMILES string. Where two headings read alike, the source gives them in different places.

On to `O=C(c1ccccc1)c1ccc2n1CC[C@@H]2C(=O)O` [(-)-S isomer], for which the “analgesic potency relative to (+)-R isomer” value in data set [1] (A. Guzman et al., 1986) is recorded as “many times greater analgesic potency”.
For `O=C(c1ccccc1)c1ccc2n1CCC2C(=O)O` (centres unmarked) [Ketorolac], in [2], the “amount to be delivered during a 24 hour period” value was 12.5 to 19.2 mg. Further, the “time to high Cmax” value in the data set on Rhesus monkeys (percutaneous, solution formulations) is not above 8 h. The “enhancement of percutaneous absorption by propylene glycol and linoleic acid, or propylene glycol and oleic acid” value in the data set on Rhesus monkeys (solution formulations) is listed as “effective”. In [3] (in vivo), the total clearance is 1750 ml/hr/70 kg. For the same compound, the “plasma concentration at 6 hour” value in data set [3] (oral administration of 10 mg, 6 hour) was 200 to 300 ng/mL. Further, the Cmax entry in data set [3] (oral administration of 10 mg) was “about 0.8 μg/ml”.
Consider `CCOC(=O)[N-]c1cn(N2CCOCC2)n[o+]1` [Molsidomine, N-5-ethoxycarbonyl-3-morpholinosydnonimine], for which the solubility result is listed as “freely soluble” in data set [4] (CHCl3); “soluble” in data set [4] (dilute HCl, ethanol, ethyl acetate, methanol); “very slightly soluble” in data set [4] (ether, petroleum ether); “soluble” in data set [4] (propylene glycol and a variety of organic solvents); “sparingly soluble” in data set [4] (water, acetone, benzene). In addition, the Solubilities in data set [4] (Glycerin, 25° C.) is 1.80%; in data set [4] (Glycol salicylate, 25° C.), 15.1%; in [4] (Isopropyl myristate, 25° C.), 0.09%; in data set [4] (Octyl.decyl oil, 25° C.) it was 0.36%; in data set [4] (Oleic Acid, 25° C.), 1.37%; in data set [4] (PEG 400, 25° C.), 5.23%. Also, in data set [4] (Propylene glycol, 25° C.), the Solubilities is on record as 6.37%. The “duration of anti-anginal effects” value in data set [5] is 3 to 5 h. The bioavailability (as a rule, dose-corrected exposure relative to a reference, in per cent) in [6] is on record as 44%. Also, in [7] (25° C.), the pKa (in general, the negative logarithm of the acid dissociation constant) is 3.34. Besides, the t90 in data set [7] (pH 5-7, 20° C.) is given as 2.6 years. Moreover, in the data set with rats, the estimated flux was approximately 399 μg/hr-cm^2.
With `CC(O)CO` (centres unmarked) [PG, propylene glycol], in data set [8], the “Effect on skin flux (factorial design)” value stood at 8.72.
With `O=[N+]([O-])OCC(CO[N+](=O)[O-])O[N+](=O)[O-]` [nitroglycerin], the “dependence of activity on cysteine” value with coronary strips was “depends on the presence of cysteine”.
On to `N#CCN(N=O)N1CCOCC1` [SIN-1A], for which the “dependence of activity on cysteine” value in the data set on coronary strips was “active in both the presence and the absence of cysteine”.
For the compound `O=C(c1ccccc1)c1ccc2n1CCC2C(=O)O` (centres unmarked) [Ketorolac tromethamine], the “estimated in vivo skin flux” value with Rhesus monkeys (rhesus monkey) is reported as “very high”. In addition, in data set [9] (PG (50%), Oleic acid (50%)), the Solubilities was 110 mg/mL. Moreover, in data set [9] (propylene glycol (PG)), the Solubilities is 200 mg/mL. For the same compound, the Solubilities in data set [9] (water) was 725 mg/mL. Besides, the “anti-inflammatory potency relative to indomethacin or naproxen” value in data set [10] is reported as 2-3 times. The shelf-life result in data set [11] (aqueous solutions pH 4-8, 25° C.) is given as “very long shelf-life”. Besides, the “aqueous solubility relative to ketorolac” value in [11] is recorded as “greater aqueous solubility than ketorolac”. The light sensitivity result in data set [11] (decarboxylation, especially in the presence of oxygen) was “light sensitive”. Moreover, the “stability in aqueous solutions” value in [11] (pH 4-8) is reported as “extremely stable”. Further, in data set [3] (in vivo), the volume of distribution is listed as 7.7 lit/70 kg. The oral bioavailability in data set [3] (oral) is 80-100%. Further, in data set [1] (administered orally), the “analgesic potency relative to aspirin” value is recorded as “about 180 times”, the “analgesic potency relative to indomethacin” value is given as 3-6 times and the “analgesic potency relative to naproxen” value is 25-50 times.
